Source: US20140329904A1, “INCREASING THE BIOAVAILABILITY OF HYDROXYCINNAMIC ACIDS” (NESTEC S.A., priority 2011, published 2014)
Where two headings read alike, the source gives them in different places.

Legend:
[1] = system: sulfotransferases (SULTs) in human intestinal S9; test: Inhibition of hydroxycinnamic acid sulfation by flavonoids in human intestinal S9; type: biochemical; details: human intestinal S9 0.4 mg/mL, 30 min, 37° C.
Description: (§1) The incubation mixture, in a final volume of 50 μL, consisted of 100 mM potassium phosphate buffer (pH 7.4), with 100 μM vitamin C, 100 μM PAPS and 1 mM DTT. Human liver S9 and intestinal S9 homogenates were used at 1 mg/mL and 0.4 mg/mL, respectively. The flavonoids were added from a 5 mM stock solution dissolved in DMSO, with final DMSO concentration equalized to 0.2%. Quercetin-3-glucuronide, quercetin-7-glucuronide and quercetin-3′-sulfate were dissolved in water. After a 15 min pre-incubation period, the reaction was initiated by adding 10 μM cinnamic acids and 25 μM dihydrocinnamic acids from a 50 mM stock solution in DMSO. To inhibit hydrolysis of quercetin glucuronides, in some analyses, 5 mM saccharolactone was added. After 30 min incubation in a 37° C. water bath, the reaction was stopped by addition of 10 μL ice-cold acetonitrile containing 500 mM HCl. Controls were treated under identical condition and consisted of samples with 0.2% DMSO (final concentration) added to the buffer. Samples were stored at −70° C. until analysis.
(§2) HPLC analyses were carried out using the Agilent 1200 series liquid chromatography system. For the analysis of caffeic acid, ferulic acid, isoferulic acid, dihydroferulic acid and their conjugates, chromatography was performed with a Zorbax XDB-C18 column (4.6×150 mm, 5 μm). The mobile phase consisted of 20 mM ammonium formate, pH 2.8 (A) and methanol (B). For the analysis of caffeic acid and conjugates, samples were eluted at 1 mL/min with 5% to 25% B in 20 min, followed by 80% B in 2 min and back to 5% B for 3 min. For the analysis of ferulic and isoferulic acid and their conjugates, the gradient was from 10% to 20% B in 10 min, to 60% B in 15 min, then set at 80% B for 2 min and back to 10% B for 3 min, at 1 mL/min. Dihydroferulic acid and conjugates analysis was carried out at 1 mL/min, from 10% to 20% B in 15 min, to 60% B in 10 min, up to 80% B for 2 min and finally to 10% B for 3 min. For dihydrocaffeic acid and conjugates, the analyses were performed with a Zorbax XDB-C18 column (4.6×50 mm, 1.8 μm) with 20 mM ammonium formate, pH 4.5 (A) and methanol (B) as the mobile phase. The gradient started at 3% (B) kept for 15 min, followed by an increase to 40% B in 5 min, and then returned to 3% B for 5 min. Samples were centrifuged and 25 μL of the supernatant were injected into the column. UV-detection carried out at 280 nm and 310 nm using photodiode array detector. Caffeic, ferulic and isoferulic acid were quantified at 310 nm, dihydroferulic acid and dihydrocaffeic acid at 280 nm.

[2] = system: sulfotransferases (SULTs) in human liver S9; test: Inhibition of hydroxycinnamic acid sulfation by flavonoids and quercetin conjugates in human liver S9; type: biochemical
Description: as §1, §2

HepG2 cells = test: Inhibition of caffeic acid and ferulic acid sulfation in HepG2 cells; type: cell-based, human; details: caffeic and ferulic acids 10 μM, 4 h
Description: HepG2 cells (ATCC) were routinely cultured in 75 cm^2 cell culture flasks at 37° C. under a humidified 5% CO2/O2 atmosphere. The culture media consisted of Eagle's Minimum Essential Medium (EMEM) media supplemented with 10% fetal bovine serum (Sigma-Aldrich) and 100 U/ml penicillin-streptomycin. All experiments were performed with HepG2 cells between passages 80 to 95. For metabolic studies, HepG2 cells were seeded into 12-well plates at a cell density of 2×10^5 per well. The cell monolayers were allowed to grow over 96 h before they were used for experiments. Hydroxycinnamic acid metabolism experiments were carried out in serum-free media with 100 μM vitamin C and 1.8 mM CaCl2, adjusted to pH 6.5. Cinnamic acids (10 μM) and dihydrocinnamic acids (25 μM) were added from a 50 mM stock solution in DMSO. […] 0.4 mL of hydroxycinnamic acids, with or without the inhibitors, were added to the HepG2 cells and incubated for 4 h at 37° C. The incubation media were then collected, acidified with 1 mM vitamin C and dried under vacuum. The residue was extracted by sonication for 5 min and vortex for 1 min, first with 500 μL acetonitrile, followed by 500 μL methanol. […]
HPLC analyses were carried out using the Agilent 1200 series liquid chromatography system. […] Caffeic, ferulic and isoferulic acid were quantified at 310 nm, dihydroferulic acid and dihydrocaffeic acid at 280 nm.

[3] = 10 μM caffeic acid, read-out: IC50 for the inhibition of sulfation of Caffeic acid
[4] = 10 μM ferulic acid, read-out: IC50 for the inhibition of sulfation of Ferulic acid
[5] = human liver S9 1 mg/mL, 10 μM caffeic acid, 30 min, 37° C., flavonoids, read-out: IC50 for the inhibition of sulfation of Caffeic acid
[6] = human liver S9 1 mg/mL, 10 μM ferulic acid, 30 min, 37° C., flavonoids, read-out: IC50 for the inhibition of sulfation of Ferulic acid
[7] = liver S9, 10 μM caffeic acid, quercetin conjugates dissolved in water, read-out: IC50 for the inhibition of sulfation of Caffeic acid
[8] = liver S9, 10 μM ferulic acid, quercetin conjugates dissolved in water, read-out: IC50 for the inhibition of sulfation of Ferulic acid

Compound | IC50 [1, 3] [µM] | IC50 [1, 4] [µM] | IC50 [2, 5] [µM] | IC50 [2, 6] [µM] | IC50 [2, 7] [µM] | IC50 [2, 8] [µM] | Inhibition of sulfation of hydroxycinnamic acid, ranking in words ([2]; liver S9) | Inhibitory effect on hydroxycinnamic acids sulfation (HepG2 cells)
Oc1cc(O)c2c(c1)O[C@H](c1ccc(O)c(O)c1)[C@@H](O)C2 [(+)-Catechin] | 5.8 | 7 | 4.2 | 4.4 |  |  |  | 
O=c1c(O)c(-c2ccc(O)c(OS(=O)(=O)O)c2)oc2cc(O)cc(O)c12 [Quercetin-3′-sulfate] |  |  |  |  | 6.6 | 6.7 |  | 
COc1cc(-c2oc3cc(O)cc(O)c3c(=O)c2O)ccc1O [Isorhamnetin] | 4.4 | 4.7 | 2 | 3.7 |  |  |  | 
O=c1c(O)c(-c2ccc(O)c(O)c2)oc2cc(O)cc(O)c12 [Quercetin] | 4.2 | 5.2 | 0.41 | 0.64 |  |  | most effective inhibitors | inhibitory effect
O=c1c(O)c(-c2ccc(O)cc2)oc2cc(O)cc(O)c12 [Kaempferol] | 2.5 | 3.8 | 0.92 | 3.9 |  |  |  | 
O=C(CCc1ccc(O)cc1)c1c(O)cc(O)cc1O [Phloretin] | 0.84 | 2.3 | 0.99 | 1 |  |  |  | 
Oc1cc(O)c2c(c1)O[C@H](c1ccc(O)c(O)c1)[C@H](O)C2 [(−)-Epicatechin] | 7.6 | 11 | 7.4 | 7.3 |  |  |  | 
O=c1c(-c2ccc(O)cc2)coc2cc(O)ccc12 [Daidzein] | 0.72 | 2.3 | 0.65 | 0.62 |  |  |  | 

Now from value to molecule, other results behind:

IC50 [1, 3] [µM] | IC50 [1, 4] [µM] | IC50 [2, 5] [µM] | IC50 [2, 6] [µM] | IC50 [2, 7] [µM] | IC50 [2, 8] [µM] | Compound | Inhibition of sulfation of hydroxycinnamic acid, ranking in words ([2]; liver S9) | Inhibitory effect on hydroxycinnamic acids sulfation (HepG2 cells)
3.5 | 5.1 | 4.3 | 5.3 |  |  | COc1ccc([C@@H]2CC(=O)c3c(O)cc(O)cc3O2)cc1O [Hesperetin] |  | 
0.96 | 2.3 | 0.46 | 0.88 |  |  | O=c1cc(-c2ccc(O)cc2)oc2cc(O)cc(O)c12 [Apigenin] |  | 
 |  |  |  | 9.6 | 8 | O=C(O)[C@H]1O[C@@H](Oc2cc(O)c3c(=O)c(O)c(-c4ccc(O)c(O)c4)oc3c2)[C@H](O)[C@@H](O)[C@@H]1O [Quercetin-7-glucuronide] |  | 
0.77 | 1.5 | 0.59 | 1 |  |  | O=c1c(-c2ccc(O)cc2)coc2cc(O)cc(O)c12 [Genistein] |  | 
1.3 | 3 | 0.08 | 0.53 |  |  | O=c1cc(-c2ccc(O)c(O)c2)oc2cc(O)cc(O)c12 [Luteolin] |  | inhibitory effect
 |  |  |  | 11 | 12 | O=C(O)[C@H]1O[C@@H](Oc2c(-c3ccc(O)c(O)c3)oc3cc(O)cc(O)c3c2=O)[C@H](O)[C@@H](O)[C@@H]1O [Quercetin-3-glucuronide] |  | 
